According to patent publication US20180051284A1, “INHIBITORS OF MIR-17-92 CLUSTER FOR ANTI-TUMOR ACTIVITY IN MULTIPLE MYELOMA AND OTHER MALIGNANCIES” (priority 2014, published 2018):
l = locked nucleic acid (LNA); d = 2'-deoxy (DNA)

How the values were obtained:
MM cell lines = test: CCK-8 cell growth analysis after gymnotic exposure; assay type: cell-based, Human; conditions: six days gymnotic exposure, 100 nM to 20 μM; ten MM cell lines; units printed inside the value (nM lower, μM upper); read-out: IC50 values by CCK-8 assay, range over MM cell lines
Protocol: Cells were seeded at low plating density in order to reach confluence on the final day of the experiments (day 6). Cell number at plating ranged from 0.5 to 2.5×10^3 in 96-well plates, from 2.5 to 10×10^3 in 12-well plates and from 1 to 3×10^4 in 6-well plates.
The LNA/DNA Gapmers were used at concentrations ranging from 0.1 to 20 μM.
Cells were seeded in 100 μL (suspension cell lines) or 50 μL (adherent cell lines) of culture medium at a density ranging from 0,5 to 2,5×10^3 cells per well. Survival was evaluated by both Cell Counting Kit-8 colorimetric assay (CCK-8, Dojindo Molecular Technologies, Japan) and CellTiter-Glo Luminescent Cell Viability Assay (Promega Madison, Wis., USA). Assays were performed according to the manufacturer's instructions. The optical density (OD) was evaluated at wave length of 450 nm. Both OD and luminescence were recorded with the GloMax-multi detection system (Promega, Madison, Wis., USA).

[1] = system: CD138+ primary MM cells from bone marrow aspirates of myeloma patients; test: Cell viability (7-AAD) of primary myeloma cells after gymnotic exposure; assay type: cell-based, Human; conditions: 6 days gymnotic exposure, 2.5, 5 or 10 μM; cultured with HS-5 stromal cells
Protocol: (§1) Following informed consent approved by our University Hospital Ethical Commitee, CD138+cells were isolated from the BM aspirates of both Monoclonal gammopathy of undetermined significance (MGUS) and myeloma patients by Ficoll-Hypaque density gradient sedimentation followed by antibody-mediated positive selection using anti-CD138 magnetic activated cell separation microbeads (Miltenyi Biotech, Gladbach, Germany). Purity of immunoselected cells were assessed by flow-cytometric analysis using a phycoerythrin-conjugated CD138 monoclonal antibody by standard procedures.
(§2) 7-aminoactinomycin was used to evaluate cell viability. The staining was performed according to manufacturer's instructions.
CD138+malignant plasma cells derived from bone marrow aspirates of 11 myeloma patients were cultured in presence of human stromal HS-5 cells.

[2] = system: CD138+ plasma cells derived from MGUS patients; test: Cell viability (7-AAD) of MGUS plasma cells after gymnotic exposure; assay type: cell-based, Human; conditions: 6 days gymnotic exposure, 5 μM
Protocol: as §1, §2

AMO1 cells = test: Combination with proteasome inhibitors or melphalan, 7-AAD cell viability, combination index; assay type: cell-based, Human; conditions: for CI value of combination with Bortezomib / CI value of combination with Carfilzomib / CI value of combination with Melphalan: AMO1, 6 days
Protocol: Bortezomib (PS-341, catalog n° S1013) and Carfilzomib (PR-171, catalog n°S2853) were purchased from Selleck. Combination between miR-17-92 LNA gapmer_06 and proteasome inhibitors was tested in AMO1 cells. 1×10^3 cells were plating in 96-well plates. Bortezomib was used at concentrations ranging from 2 nM to 3.5 nM. Carfilzomib was used at concentrations ranging from 0.4 to 0.7 nM. Measurement of synergistic index (SI) was determined with the following formula: SI=(effect induced by miR-17-92 LNA gapmers and proteasome inhibitors in combination)/effect of miR-17-92 LNA gapmers) +(effect of proteasome inhibitors). Interactions were considered synergistic when the SI was >1.
Melphalan was purchased from Sigma Aldrich (catalog n°M2011). Combination between miR-17-92 LNA gapmer_06 and melphalan was tested in AMO1 cells. Cell number at plating was 1×10^3 in 96-well plates. Melphalan was used at concentrations ranging from 0.5 μM to 2 μM. Measurement of synergistic index (SI) was determined with the following formula: SI=(effect induced by miR-17-92 LNA gapmers and melphalan in combination)/(effect of miR-17-92 LNA gapmers)+(effect of melphalan). Interactions were considered synergistic when the SI was >1.
as §2
AMO1 cells were exposed for 6 days to LNA gapmers_06 or each of Bortezomib, Carfilzomib, Melphalan or to combinations of LNA gapmer_06 and each of these drugs.
Cells viability was calculated by flow cytometric analysis of 7-AAD staining and the percentage of living cell was compared to the untreated cells.
In Tables 3-5 tests with the respective combinations performed simultaneously are reported. The effect of LNA gapmer_06 was determined separately for Bortezomib, Carfilzomib, and Melphalan explaining the slightly different values. CI (combination index) values are shown (CI<1 synergism, CI=1 additive, […]). For each monotherapy different doses and combinations were tested. Combination index were calculated using the CalcuSyn software.

NCI-H929 MM xenografts = test: In vivo anti-MM activity in NCI-H929 xenografted SCID/NOD mice
Excerpt: Male CB-17 severe combined immunodeficient (SCID) mice (6- to 8-weeks old; Harlan Laboratories, Inc., Indianapolis) were housed and monitored in our Animal Research Facility. All experimental procedures and protocols had been approved by the Institutional Ethical Committee (Magna Graecia University) and conducted according to protocols approved by the National Directorate of Veterinary Services (Italy). In accordance with institutional guidelines, mice were sacrificed when tumors reached 2 cm in diameter or in the event of paralysis or major compromise, to prevent unnecessary suffering. Animal experimental procedures have been performed as in previous reports (Di Martino et al, CCR 2012; Di Martino el al. Oncotarget 2013, Di Martino et al PlosOne 2014). Briefly, mice were subcutaneously inoculated with 5×10^6 NCI-H929 cells and treatments started when palpable tumors became detectable, approximately 3 weeks following injection of MM cells. Treatments were performed intraperitoneally with different schedules in order to reach the Maximun Tolerated Dose (MTD) and a dose-response curve. Mice were also inoculated with 5×10^6 luciferase gene-marked U266, AMO-1, AMO-1/abzb, treatments were performed intraperitoneally (i.p.), and tumor volume were measured by IVIS Lumina II.
The tumor sizes were assessed by Caliper measurement. […]

## gapmer_06: LNA/DNA gapmer, SEQ ID 4 (14 mer): +T*+A*+C*T*T*G*C*T*T*G*G*+C*+T*+T; + LNA, * phosphorothioate (antisense TACTTGCTTGGCTT; sugars from the 5' end l3 d8 l3, all phosphorothioate, methylation of C not given here)
MM cell lines
  IC50: 500 to 8000 nM
[1]
  dead myeloma cells (7-AAD staining): significant increase of dead myeloma cells
[2]
  cell viability (7-AAD): unaffected
AMO1 cells; AMO1 cells, 6 days, combination with Bortezomib
  interaction with Bortezomib to induce cell death: synergizes
AMO1 cells; AMO1 cells, 6 days, combination with Carfilzomib
  interaction with Carfilzomib to induce cell death: synergizes
AMO1 cells; AMO1 cells, 6 days, combination with Melphalan
  interaction with Melphalan to induce cell death: synergizes
AMO1 cells; Bortezomib 0.0035 μm + miR-17-92 LNA gapmer 0.5 μl
  CI value of combination with Bortezomib: 0.759
AMO1 cells; Bortezomib 0.0035 μm + miR-17-92 LNA gapmer 0.75 μl
  CI value of combination with Bortezomib: 0.418
AMO1 cells; Bortezomib 0.0035 μm + miR-17-92 LNA gapmer 1 μl
  CI value of combination with Bortezomib: 0.342
AMO1 cells; Bortezomib 0.0035 μm + miR-17-92 LNA gapmer 1.25 μl
  CI value of combination with Bortezomib: 0.036
AMO1 cells; Carfilzomib 0.0004 μm + miR-17-92 LNA gapmer 1.25 μl
  CI value of combination with Carfilzomib: 0.89
AMO1 cells; Carfilzomib 0.0005 μm + miR-17-92 LNA gapmer 1.25 μl
  CI value of combination with Carfilzomib: 0.55
AMO1 cells; Carfilzomib 0.0006 μm + miR-17-92 LNA gapmer 1.25 μl
  CI value of combination with Carfilzomib: 0.50
AMO1 cells; Carfilzomib 0.0007 μm + miR-17-92 LNA gapmer 1.25 μl
  CI value of combination with Carfilzomib: 0.39
AMO1 cells; Melphala 1.5 μm + miR-17-92 LNA gapmer 0.5 μl
  CI value of combination with Melphalan: 0.78
AMO1 cells; Melphala 1.5 μm + miR-17-92 LNA gapmer 0.75 μl
  CI value of combination with Melphalan: 0.99
AMO1 cells; Melphala 1.5 μm + miR-17-92 LNA gapmer 1 μl
  CI value of combination with Melphalan: 0.65
AMO1 cells; Melphala 1.5 μm + miR-17-92 LNA gapmer 1.25 μl
  CI value of combination with Melphalan: 0.56
AMO1 cells; Melphala 1.75 μm + miR-17-92 LNA gapmer 0.5 μl
  CI value of combination with Melphalan: 0.66
AMO1 cells; Melphala 1.75 μm + miR-17-92 LNA gapmer 0.75 μl
  CI value of combination with Melphalan: 0.89
AMO1 cells; Melphala 1.75 μm + miR-17-92 LNA gapmer 1 μl
  CI value of combination with Melphalan: 0.56
AMO1 cells; Melphala 1.75 μm + miR-17-92 LNA gapmer 1.25 μl
  CI value of combination with Melphalan: 0.47
AMO1 cells; Melphala 2 μm + miR-17-92 LNA gapmer 0.5 μl
  CI value of combination with Melphalan: 0.51
AMO1 cells; Melphala 2 μm + miR-17-92 LNA gapmer 0.75 μl
  CI value of combination with Melphalan: 0.59
AMO1 cells; Melphala 2 μm + miR-17-92 LNA gapmer 1 μl
  CI value of combination with Melphalan: 0.46
AMO1 cells; Melphala 2 μm + miR-17-92 LNA gapmer 1.25 μl
  CI value of combination with Melphalan: 0.26
NCI-H929 MM xenografts; intraperitoneal treatment, as compared to saline
  survival (Kaplan-Meier): significant prolongation of survival
NCI-H929 MM xenografts; intraperitoneally, 75-50-25 μg once weekly or 25-12.5 μg twice weekly, vs saline
  tumor growth (caliper tumor volume): significant (P<0.05) inhibition of tumor growth in a dose dependent-manner
